Tests used:
CSNK1G3 = molecular target: T1, CSNK1G3 (Homo sapiens, UniProt Q9Y6M4); test: KINOMEscan at 1 μM, CSNK1G3; assay type: binding; settings: 1000 nM, read-out: Percent Control
T1 construct: purchased Eurofins DiscoverX KINOMEscan
Description: (§1) Supplement cells-12-00287-s001.zip/File S2. KinomeScan data for the CAMKK2 probe and negative control.xlsx, sheet "SGC-CAMKK2-1N" | column: Percent Control

NEK7 = molecular target: T2, NEK7 (Homo sapiens, UniProt Q8TDX7); test: KINOMEscan at 1 μM, NEK7; assay type: binding; settings: 1000 nM, read-out: Percent Control
T2 construct: purchased Eurofins DiscoverX KINOMEscan
Description: as §1

[1] = molecular target: T3, ABL1(F317L)-phosphorylated (Homo sapiens, UniProt P00519, F317L); test: KINOMEscan at 1 μM, ABL1(F317L)-phosphorylated; assay type: binding; settings: 1000 nM, read-out: Percent Control
T3 construct: purchased Eurofins DiscoverX KINOMEscan
Description: as §1

NIK = molecular target: T4, NIK (Homo sapiens, UniProt Q99558); test: KINOMEscan at 1 μM, NIK; assay type: binding; settings: 1000 nM, read-out: Percent Control
T4 construct: purchased Eurofins DiscoverX KINOMEscan
Description: as §1

[2] = molecular target: T5, ABL1(F317L)-nonphosphorylated (Homo sapiens, UniProt P00519, F317L); test: KINOMEscan at 1 μM, ABL1(F317L)-nonphosphorylated; assay type: binding; settings: 1000 nM, read-out: Percent Control
T5 construct: purchased Eurofins DiscoverX KINOMEscan
Description: as §1

BMPR1B = molecular target: T6, BMPR1B (Homo sapiens, UniProt O00238); test: KINOMEscan at 1 μM, BMPR1B; assay type: binding; settings: 1000 nM, read-out: Percent Control
T6 construct: purchased Eurofins DiscoverX KINOMEscan
Description: as §1

PDGFRA = molecular target: T7, PDGFRA (Homo sapiens, UniProt P16234); test: KINOMEscan at 1 μM, PDGFRA; assay type: binding; settings: 1000 nM, read-out: Percent Control
T7 construct: purchased Eurofins DiscoverX KINOMEscan
Description: as §1

WNK4 = molecular target: T8, WNK4 (Homo sapiens, UniProt Q96J92); test: KINOMEscan at 1 μM, WNK4; assay type: binding; settings: 1000 nM, read-out: Percent Control
T8 construct: purchased Eurofins DiscoverX KINOMEscan
T8 sequence (Q96J92 whole entry): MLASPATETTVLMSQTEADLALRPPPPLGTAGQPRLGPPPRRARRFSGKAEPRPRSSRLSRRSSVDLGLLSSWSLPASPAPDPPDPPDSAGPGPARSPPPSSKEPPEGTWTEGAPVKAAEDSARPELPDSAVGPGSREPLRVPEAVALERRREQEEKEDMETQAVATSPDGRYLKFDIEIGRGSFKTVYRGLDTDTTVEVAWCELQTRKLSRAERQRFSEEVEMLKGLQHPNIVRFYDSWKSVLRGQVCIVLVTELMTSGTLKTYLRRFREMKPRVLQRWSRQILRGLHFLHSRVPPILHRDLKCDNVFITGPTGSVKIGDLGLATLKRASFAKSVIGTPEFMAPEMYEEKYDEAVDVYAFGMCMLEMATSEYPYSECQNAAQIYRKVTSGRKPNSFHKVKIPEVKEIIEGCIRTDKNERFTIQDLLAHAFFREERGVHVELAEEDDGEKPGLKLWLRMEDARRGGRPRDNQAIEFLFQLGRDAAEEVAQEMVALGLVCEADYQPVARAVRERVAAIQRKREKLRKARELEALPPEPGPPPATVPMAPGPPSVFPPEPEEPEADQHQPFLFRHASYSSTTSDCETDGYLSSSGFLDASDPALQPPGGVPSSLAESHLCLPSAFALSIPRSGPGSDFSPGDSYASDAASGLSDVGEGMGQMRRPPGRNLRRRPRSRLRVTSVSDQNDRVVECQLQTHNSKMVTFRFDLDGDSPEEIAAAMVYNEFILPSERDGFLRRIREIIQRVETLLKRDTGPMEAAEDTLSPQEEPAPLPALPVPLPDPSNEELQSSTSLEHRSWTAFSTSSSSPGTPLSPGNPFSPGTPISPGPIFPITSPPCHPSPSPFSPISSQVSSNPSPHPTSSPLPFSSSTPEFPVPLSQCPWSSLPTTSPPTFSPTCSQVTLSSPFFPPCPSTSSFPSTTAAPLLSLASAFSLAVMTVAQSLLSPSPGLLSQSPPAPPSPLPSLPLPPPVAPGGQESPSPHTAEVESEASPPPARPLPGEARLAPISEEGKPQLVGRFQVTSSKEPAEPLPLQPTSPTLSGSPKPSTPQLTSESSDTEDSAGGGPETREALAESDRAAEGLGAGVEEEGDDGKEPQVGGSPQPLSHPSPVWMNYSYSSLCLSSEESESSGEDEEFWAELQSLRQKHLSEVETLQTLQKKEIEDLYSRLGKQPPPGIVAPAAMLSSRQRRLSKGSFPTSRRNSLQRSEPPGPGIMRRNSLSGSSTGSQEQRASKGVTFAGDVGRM
Description: as §1

[3] = molecular target: T9, RSK3(Kin.Dom.2-C-terminal) (Homo sapiens, UniProt Q15349); test: KINOMEscan at 1 μM, RSK3(Kin.Dom.2-C-terminal); assay type: binding; settings: 1000 nM, read-out: Percent Control
T9 construct: RSK3(Kin.Dom.2-C-terminal); purchased Eurofins DiscoverX KINOMEscan
Description: as §1

PKMYT1 = molecular target: T10, PKMYT1 (Homo sapiens, UniProt Q99640); test: KINOMEscan at 1 μM, PKMYT1; assay type: binding; settings: 1000 nM, read-out: Percent Control
T10 construct: purchased Eurofins DiscoverX KINOMEscan
Description: as §1

CSNK2A2 = molecular target: T11, CSNK2A2 (Homo sapiens, UniProt P19784); test: KINOMEscan at 1 μM, CSNK2A2; assay type: binding; settings: 1000 nM, read-out: Percent Control
T11 construct: purchased Eurofins DiscoverX KINOMEscan
T11 sequence (P19784 whole entry): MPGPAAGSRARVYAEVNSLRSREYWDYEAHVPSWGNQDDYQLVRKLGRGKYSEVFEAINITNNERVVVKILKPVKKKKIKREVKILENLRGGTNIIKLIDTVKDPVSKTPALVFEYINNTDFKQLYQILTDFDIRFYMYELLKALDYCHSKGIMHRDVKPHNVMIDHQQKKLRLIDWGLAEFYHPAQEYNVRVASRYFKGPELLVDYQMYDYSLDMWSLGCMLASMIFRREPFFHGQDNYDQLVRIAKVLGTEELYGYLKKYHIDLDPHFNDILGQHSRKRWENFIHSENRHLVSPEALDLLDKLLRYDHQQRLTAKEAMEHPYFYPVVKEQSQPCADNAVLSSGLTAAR
Description: as §1

CSNK1G2 = molecular target: T12, CSNK1G2 (Homo sapiens, UniProt P78368); test: KINOMEscan at 1 μM, CSNK1G2; assay type: binding; settings: 1000 nM, read-out: Percent Control
T12 construct: purchased Eurofins DiscoverX KINOMEscan
Description: as §1

PRKCH [4] = molecular target: T13, PRKCH (Homo sapiens, UniProt P24723); test: KINOMEscan at 1 μM, PRKCH; assay type: binding; settings: 1000 nM, read-out: Percent Control
T13 construct: purchased Eurofins DiscoverX KINOMEscan
T13 sequence (P24723 whole entry): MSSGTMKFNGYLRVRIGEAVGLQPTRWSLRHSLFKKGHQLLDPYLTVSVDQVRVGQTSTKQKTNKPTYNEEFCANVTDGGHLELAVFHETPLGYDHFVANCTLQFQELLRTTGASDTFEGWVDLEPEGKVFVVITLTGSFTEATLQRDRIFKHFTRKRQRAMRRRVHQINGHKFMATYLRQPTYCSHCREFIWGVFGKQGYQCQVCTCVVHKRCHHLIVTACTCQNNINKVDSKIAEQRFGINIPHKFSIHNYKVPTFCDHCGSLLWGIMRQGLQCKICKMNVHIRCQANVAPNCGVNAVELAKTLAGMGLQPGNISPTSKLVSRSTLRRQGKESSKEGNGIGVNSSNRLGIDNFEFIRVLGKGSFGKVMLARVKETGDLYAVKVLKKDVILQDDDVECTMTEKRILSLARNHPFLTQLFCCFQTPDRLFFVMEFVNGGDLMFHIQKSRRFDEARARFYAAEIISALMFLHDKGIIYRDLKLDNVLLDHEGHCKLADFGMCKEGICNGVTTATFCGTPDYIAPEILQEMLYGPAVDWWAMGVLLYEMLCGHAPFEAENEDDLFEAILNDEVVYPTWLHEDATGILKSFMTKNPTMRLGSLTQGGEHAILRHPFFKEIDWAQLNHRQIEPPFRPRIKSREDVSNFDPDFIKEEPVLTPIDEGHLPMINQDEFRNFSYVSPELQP
Description: as §1

SGK3 = molecular target: T14, SGK3 (Homo sapiens, UniProt Q96BR1); test: KINOMEscan binding assay at 1 μM, SGK3; settings: Compound Concentration 1000 nM; read-out: Percent Control
T14 construct: purchased Eurofins DiscoverX KINOMEscan
Description: as §1

PRKD1 = molecular target: T15, PRKD1 (Homo sapiens, UniProt Q15139); test: KINOMEscan binding assay at 1 μM, PRKD1; settings: Compound Concentration 1000 nM; read-out: Percent Control
T15 construct: purchased Eurofins DiscoverX KINOMEscan
Description: as §1

PHKG1 = molecular target: T16, PHKG1 (Homo sapiens, UniProt Q16816); test: KINOMEscan at 1 μM, PHKG1; assay type: binding; settings: 1000 nM, read-out: Percent Control
T16 construct: purchased Eurofins DiscoverX KINOMEscan
T16 sequence (Q16816 whole entry): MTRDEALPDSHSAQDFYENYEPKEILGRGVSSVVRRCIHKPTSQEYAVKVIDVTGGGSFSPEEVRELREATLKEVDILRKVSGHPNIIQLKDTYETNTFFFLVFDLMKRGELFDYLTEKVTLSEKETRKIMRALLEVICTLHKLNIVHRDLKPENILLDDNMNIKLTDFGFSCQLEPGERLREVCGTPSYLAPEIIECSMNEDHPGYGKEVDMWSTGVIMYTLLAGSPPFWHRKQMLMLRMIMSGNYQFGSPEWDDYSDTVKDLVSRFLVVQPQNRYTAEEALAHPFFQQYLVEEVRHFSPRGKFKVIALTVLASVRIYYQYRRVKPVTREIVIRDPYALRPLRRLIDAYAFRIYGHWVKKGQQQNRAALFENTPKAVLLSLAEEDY
Description: as §1

CLK2 = molecular target: T17, CLK2 (Homo sapiens, UniProt P49760); test: KINOMEscan at 1 μM, CLK2; assay type: binding; settings: 1000 nM, read-out: Percent Control
T17 construct: purchased Eurofins DiscoverX KINOMEscan
T17 sequence (P49760 whole entry): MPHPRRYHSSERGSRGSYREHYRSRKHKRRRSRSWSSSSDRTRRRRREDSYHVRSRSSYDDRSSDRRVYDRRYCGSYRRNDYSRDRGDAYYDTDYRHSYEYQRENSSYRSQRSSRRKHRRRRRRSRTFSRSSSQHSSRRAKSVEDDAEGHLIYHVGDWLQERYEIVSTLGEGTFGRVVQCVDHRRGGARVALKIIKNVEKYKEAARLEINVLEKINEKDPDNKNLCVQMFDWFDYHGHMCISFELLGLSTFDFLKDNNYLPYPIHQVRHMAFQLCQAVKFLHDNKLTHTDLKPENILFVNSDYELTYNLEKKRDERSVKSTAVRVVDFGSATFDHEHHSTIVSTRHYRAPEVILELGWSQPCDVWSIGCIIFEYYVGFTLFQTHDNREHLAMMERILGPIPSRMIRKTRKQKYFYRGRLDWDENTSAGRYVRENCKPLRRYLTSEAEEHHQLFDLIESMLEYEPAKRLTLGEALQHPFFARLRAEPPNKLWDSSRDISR
Description: as §1

RIOK3 = molecular target: T18, RIOK3 (Homo sapiens, UniProt O14730); test: KINOMEscan 1 μM, RIOK3; assay type: binding; settings: 1000 nM; Entrez RIOK3; read-out: Percent Control
T18 construct: purchased Eurofins DiscoverX KINOMEscan
Description: (§2) Supplement cells-12-00287-s001.zip/File S2. KinomeScan data for the CAMKK2 probe and negative control.xlsx, sheet "SGC-CAMKK2-1" | column: Percent Control

PRKCH [5] = molecular target: T13, PRKCH; test: DiscoverX KINOMEscan binding assay at 1 μM, PRKCH; settings: Compound Concentration 1000 nM, read-out: Percent Control
Description: as §2

STK35 = molecular target: T19, STK35 (Homo sapiens, UniProt Q8TDR2); test: KINOMEscan 1 μM, STK35; assay type: binding; settings: 1000 nM; Entrez STK35; read-out: Percent Control
T19 construct: purchased Eurofins DiscoverX KINOMEscan
Description: as §2

[6] = molecular target: T20, JAK2(JH1domain-catalytic) (Homo sapiens, UniProt O60674); test: KINOMEscan 1 μM, JAK2(JH1domain-catalytic); assay type: binding; settings: 1000 nM; Entrez JAK2; read-out: Percent Control
T20 construct: JAK2(JH1domain-catalytic); purchased Eurofins DiscoverX KINOMEscan
Description: as §2

NIM1 = molecular target: T21, NIM1 (Homo sapiens, UniProt Q8IY84); test: KINOMEscan 1 μM, NIM1; assay type: binding; settings: 1000 nM; Entrez MGC42105; read-out: Percent Control
T21 construct: purchased Eurofins DiscoverX KINOMEscan
Description: as §2

KIT(D816H) = molecular target: T22, KIT(D816H) (Homo sapiens, UniProt P10721, D816H); test: KINOMEscan 1 μM, KIT(D816H); assay type: binding; settings: 1000 nM; Entrez KIT; read-out: Percent Control
T22 construct: purchased Eurofins DiscoverX KINOMEscan
T22 sequence (P10721 26-976 D816H): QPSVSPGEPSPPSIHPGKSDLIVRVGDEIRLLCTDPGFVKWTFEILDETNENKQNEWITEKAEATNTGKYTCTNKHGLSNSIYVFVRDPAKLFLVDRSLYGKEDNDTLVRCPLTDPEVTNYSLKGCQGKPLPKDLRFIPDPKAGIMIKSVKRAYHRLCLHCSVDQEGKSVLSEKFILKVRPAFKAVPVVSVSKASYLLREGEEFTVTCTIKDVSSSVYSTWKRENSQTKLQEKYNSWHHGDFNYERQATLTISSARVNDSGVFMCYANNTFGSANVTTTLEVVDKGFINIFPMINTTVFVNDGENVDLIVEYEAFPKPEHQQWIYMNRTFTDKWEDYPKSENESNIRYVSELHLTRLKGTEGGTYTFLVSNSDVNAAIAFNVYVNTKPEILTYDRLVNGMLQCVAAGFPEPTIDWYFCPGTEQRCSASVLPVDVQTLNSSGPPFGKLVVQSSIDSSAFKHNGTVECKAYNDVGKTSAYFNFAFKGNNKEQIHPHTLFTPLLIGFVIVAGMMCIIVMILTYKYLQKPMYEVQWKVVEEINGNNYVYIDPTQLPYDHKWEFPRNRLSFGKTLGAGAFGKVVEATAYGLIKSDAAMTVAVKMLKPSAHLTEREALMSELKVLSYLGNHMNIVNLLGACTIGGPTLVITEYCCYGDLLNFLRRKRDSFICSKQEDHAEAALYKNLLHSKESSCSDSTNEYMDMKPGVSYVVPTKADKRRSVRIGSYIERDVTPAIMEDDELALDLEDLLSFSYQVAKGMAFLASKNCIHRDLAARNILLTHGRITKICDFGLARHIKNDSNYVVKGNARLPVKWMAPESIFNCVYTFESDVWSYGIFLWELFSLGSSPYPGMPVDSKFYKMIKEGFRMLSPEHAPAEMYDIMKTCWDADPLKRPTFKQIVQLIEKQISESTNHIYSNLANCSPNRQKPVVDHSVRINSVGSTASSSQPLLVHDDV
Description: as §2

FLT3(R834Q) = molecular target: T23, FLT3(R834Q) (Homo sapiens, UniProt P36888, R834Q); test: KINOMEscan 1 μM, FLT3(R834Q); assay type: binding; settings: 1000 nM; Entrez FLT3; read-out: Percent Control
T23 construct: purchased Eurofins DiscoverX KINOMEscan
Description: as §2

ERBB2 = molecular target: T24, ERBB2 (Homo sapiens, UniProt P04626); test: KINOMEscan 1 μM, ERBB2; assay type: binding; settings: 1000 nM; Entrez ERBB2; read-out: Percent Control
T24 construct: purchased Eurofins DiscoverX KINOMEscan
Description: as §2

FLT1 = molecular target: T25, FLT1 (Homo sapiens, UniProt P17948); test: KINOMEscan 1 μM, FLT1; assay type: binding; settings: 1000 nM; Entrez FLT1; read-out: Percent Control
T25 construct: purchased Eurofins DiscoverX KINOMEscan
Description: as §2

RIPK2 = molecular target: T26, RIPK2 (Homo sapiens, UniProt O43353); test: KINOMEscan 1 μM, RIPK2; assay type: binding; settings: 1000 nM; Entrez RIPK2; read-out: Percent Control
T26 construct: purchased Eurofins DiscoverX KINOMEscan
Description: as §2

KIT-autoinhibited = molecular target: T27, KIT-autoinhibited (Homo sapiens, UniProt P10721); test: KINOMEscan 1 μM, KIT-autoinhibited; assay type: binding; settings: 1000 nM; Entrez KIT; read-out: Percent Control
T27 construct: purchased Eurofins DiscoverX KINOMEscan
T27 sequence (P10721 26-976): as the sequence (P10721 26-976 D816H) above, with H791D counted along it
Description: as §2

FGFR3 = molecular target: T28, FGFR3 (Homo sapiens, UniProt P22607); test: KINOMEscan 1 μM, FGFR3; assay type: binding; settings: 1000 nM; Entrez FGFR3; read-out: Percent Control
T28 construct: purchased Eurofins DiscoverX KINOMEscan
T28 sequence (P22607 23-806): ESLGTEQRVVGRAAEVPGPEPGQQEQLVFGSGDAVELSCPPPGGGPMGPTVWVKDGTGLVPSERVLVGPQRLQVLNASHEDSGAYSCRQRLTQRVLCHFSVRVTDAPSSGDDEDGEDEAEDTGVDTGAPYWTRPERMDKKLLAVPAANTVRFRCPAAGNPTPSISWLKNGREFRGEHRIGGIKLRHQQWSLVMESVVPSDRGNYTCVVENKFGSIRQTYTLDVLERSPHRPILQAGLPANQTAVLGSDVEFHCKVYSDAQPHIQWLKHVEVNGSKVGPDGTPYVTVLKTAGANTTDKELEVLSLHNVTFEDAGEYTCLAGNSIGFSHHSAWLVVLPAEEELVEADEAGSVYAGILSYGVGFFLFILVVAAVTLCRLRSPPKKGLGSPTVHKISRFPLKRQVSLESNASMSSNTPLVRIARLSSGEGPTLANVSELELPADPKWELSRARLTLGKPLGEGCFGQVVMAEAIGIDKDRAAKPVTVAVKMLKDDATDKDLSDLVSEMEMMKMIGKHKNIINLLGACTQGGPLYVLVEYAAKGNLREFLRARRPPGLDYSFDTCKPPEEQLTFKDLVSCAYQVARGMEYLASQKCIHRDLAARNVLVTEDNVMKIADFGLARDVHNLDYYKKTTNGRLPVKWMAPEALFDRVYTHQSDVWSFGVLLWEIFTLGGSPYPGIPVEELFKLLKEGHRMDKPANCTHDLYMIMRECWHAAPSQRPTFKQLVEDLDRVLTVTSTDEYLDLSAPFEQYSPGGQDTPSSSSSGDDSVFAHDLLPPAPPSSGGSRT
Description: as §2

PIK3CA(E545K) = molecular target: T29, PIK3CA(E545K) (Homo sapiens, UniProt P42336, E545K); test: KINOMEscan 1 μM, PIK3CA(E545K); assay type: binding; settings: 1000 nM; Entrez PIK3CA; read-out: Percent Control
T29 construct: purchased Eurofins DiscoverX KINOMEscan
Description: as §2

SYK = molecular target: T30, SYK (Homo sapiens, UniProt P43405); test: KINOMEscan 1 μM, SYK; assay type: binding; settings: 1000 nM; Entrez SYK; read-out: Percent Control
T30 construct: purchased Eurofins DiscoverX KINOMEscan
Description: as §2

EPHA8 = molecular target: T31, EPHA8 (Homo sapiens, UniProt P29322); test: KINOMEscan 1 μM, EPHA8; assay type: binding; settings: 1000 nM; Entrez EPHA8; read-out: Percent Control
T31 construct: purchased Eurofins DiscoverX KINOMEscan
Description: as §2

ULK1 = molecular target: T32, ULK1 (Homo sapiens, UniProt O75385); test: KINOMEscan 1 μM, ULK1; assay type: binding; settings: 1000 nM; Entrez ULK1; read-out: Percent Control
T32 construct: purchased Eurofins DiscoverX KINOMEscan
Description: as §2

How did the remaining binding at 1 µM (CSNK1G3) turn out when `O=C(O)c1ccc(-c2coc3ncc(-c4ccccc4)cc23)cc1Cl` [SGC-CAMKK2-1N (UNC-YL-83)] was run?
The remaining binding at 1 µM was 76%.

And the remaining binding at 1 µM (NEK7)?
Its remaining binding at 1 µM is 78%.

And the remaining binding at 1 µM [1]?
Its remaining binding at 1 µM is 79%.

And the remaining binding at 1 µM (NIK)?
Its remaining binding at 1 µM is 94%.

What about the remaining binding at 1 µM [2] of the same compound?
The remaining binding at 1 µM was 100%.

And the remaining binding at 1 µM (BMPR1B)?
Its remaining binding at 1 µM is 65%.

What about the remaining binding at 1 µM (PDGFRA) of the same compound?
Its remaining binding at 1 µM is 74%.

What about the remaining binding at 1 µM (WNK4) of the same compound?
Its remaining binding at 1 µM is 93%.

What about the remaining binding at 1 µM [3] of the same compound?
The remaining binding at 1 µM was 91%.

What about the remaining binding at 1 µM (PKMYT1) of the same compound?
The remaining binding at 1 µM was 94%.

And the remaining binding at 1 µM (CSNK2A2)?
The remaining binding at 1 µM was 98%.

What about the remaining binding at 1 µM (CSNK1G2) of the same compound?
The remaining binding at 1 µM was 100%.

And the remaining binding at 1 µM (PRKCH [4])?
The remaining binding at 1 µM was 94%.

What about the remaining binding at 1 µM (SGK3) of the same compound?
Its remaining binding at 1 µM is 100%.

And the remaining binding at 1 µM (PRKD1)?
Its remaining binding at 1 µM is 100%.

What about the remaining binding at 1 µM (PHKG1) of the same compound?
The remaining binding at 1 µM was 93%.

What about the remaining binding at 1 µM (CLK2) of the same compound?
The remaining binding at 1 µM was 62%.

What does the source list for `Cc1cccc(-c2cnc3occ(-c4ccc(C(=O)O)c(C5CCCC5)c4)c3c2)c1` [SGC-CAMKK2-1 (YL-36)]?
remaining binding at 1 µM (RIOK3): 75%; remaining binding at 1 µM (PRKCH [5]): 100%; remaining binding at 1 µM (STK35): 73%; remaining binding at 1 µM [6]: 100%; remaining binding at 1 µM (NIM1): 100%; remaining binding at 1 µM (KIT(D816H)): 87%; remaining binding at 1 µM (FLT3(R834Q)): 100%; remaining binding at 1 µM (ERBB2): 100%; remaining binding at 1 µM (FLT1): 93%; remaining binding at 1 µM (RIPK2): 55%; remaining binding at 1 µM (KIT-autoinhibited): 100%; remaining binding at 1 µM (FGFR3): 95%; remaining binding at 1 µM (PIK3CA(E545K)): 94%; remaining binding at 1 µM (SYK): 85%; remaining binding at 1 µM (EPHA8): 95%; remaining binding at 1 µM (ULK1): 62%

Reference: paper PMC9856672, “SGC-CAMKK2-1: A Chemical Probe for CAMKK2” (Cells, 2023)
